Experiments:
[1] = test system: C-terminal domain (CTD) of RNA polymerase II, serine 2 and serine 5; test: Immunoblotting: phosphorylation of the C-terminal domain of RNA polymerase II; assay type: cell-based
Protocol: Cell were detached with rubber policeman and washed three times with ice-cold PBS and lysed in buffer (50 mM Tris, pH 7.4, 250 mM NaCl, 5 mM EDTA, 50 mM NaF, 1 mM Na3VO4, 1% Nonidet P40) containing mixture of protease and phosphatase inhibitors (Sigma-Aldrich St Louis, Mo., USA). 20 μg of total proteins were separated by SDS-polyacrylamide gel electrophoresis (SDS-PAGE) on 8% or 10% gels and transferred onto nitrocellulose membranes. Membranes were blocked in 5% milk and 0.1% Tween 20 in PBS and probed overnight with specific monoclonal antibodies or rabbit polyclonal sera. Primary antibodies specific for RNA polymerase II (all from Santa Cruz Biotechnology, California, USA) included: (i) N-20 used at 1 μg/ml, (ii) H14, specific for form phosphorylated at phosphoserine 5, used at 6 μg/ml and (iii) H5, specific for form phosphorylated at phosphoserine 2 used at 4 μg/ml. Additional primary mAb used in immunblots included (iv) anti-p53 (DO-1, in house) used at 1 μg/ml, (v) anti-p21^WAF1 (118, in house), used at 1 μg/ml), (vi) anti-actin (A-2066, Sigma-Aldrich St Louis, Mo., USA) used at 1 μg/ml, (vii) anti-T-antigen (419, in house), used at 1 μg/ml. All primary antibodies were diluted in PBS containing 5% powdered milk; 0.1% Tween 20. Peroxidase conjugated rabbit anti-mouse immunoglobulin or porcine anti-rabbit immunoglobulin antisera (DAKO, Glostrup, Denmark) were used as the secondary antibodies and visualised with ECL reagents (Amersham-Pharmacia, Little Chalfont, UK).
Modulation of expression from the HIV promoter by CDKI treatment may be mediated by transcriptional regulation. At the C-terminus of the largest subunit of RNA Pol II is an important regulatory domain referred to as CTD (C-terminal domain). We therefore investigated the effect of CDKIs on CTD serine 2 and serine 5 phosphorylation. […] Although the functions of CDKs and RNA polymerase II were suppressed, the expression from incorporated viral promoters was enhanced.
Cell were detached with rubber policeman and washed three times with ice-cold PBS and lysed in buffer (50 mM Tris, pH 7.4, 250 mM NaCl, 5 mM EDTA, 50 mM NaF, 1 mM Na3VO4, 1% Nonidet P40) containing mixture of protease and phosphatase inhibitors (Sigma-Aldrich St Louis, Mo., USA). 20 μg of total proteins were separated by SDS-polyacrylamide gel electrophoresis (SDS-PAGE) on 8% or 10% gels and transferred onto nitrocellulose membranes. Membranes were blocked in 5% milk and 0.1% Tween 20 in PBS and probed overnight with specific monoclonal antibodies or rabbit polyclonal sera. […]

[2] = test system: p53 protein in MCF-7 cells expressing wild-type p53; test: Induction of p53 protein in MCF-7 cells (immunoblotting); assay type: cell-based, human
Protocol: (a) DO-1, DO-2 and 1801 monoclonal antibodies recognise the N-terminal region of p53 protein, monoclonal antibodies DO-11 and DO-12 recognise different epitopes in the core domain of p53 protein, monoclonal antibodies Bp53-10 and Pab421 recognise the C-terminal region of p53 protein. (b) Monoclonal antibody 118 recognises p21^WAF1.
For direct immunoblotting, total cellular protein lysates were prepared by harvesting cells in hot Laemmli electrophoresis sample buffer. Proteins were then separated by SDS-polyacrylamide gel electrophoresis (SDS-PAGE) on 10% gel and transferred onto a nitrocellulose membrane in Bio.Rad Mini Trans-Blott Electrophoretic Transfer Cell for 2 hrs at 4° C. applying 150 mA in transfer buffer ([…], 190 mM glycine and 20% methanol). Prestained molecular weight markers (Bio-Rad) were run in parallel. The blotted membranes were blocked in 5% milk and 0.1% Tween 20 in PBS for 2 hrs and probed overnight with monoclonal antibodies. After washing 3 times in PBS plus 0.1% Tween 20, peroxidase conjugated rabbit anti-mouse immunoglobulin antiserum (Dako, Denmark) diluted 1:1000 was used as the secondary antibody. To visualise peroxidase activity, ECL reagents from […] were used according to the manufacturer instructions.
First, we determined appropriate concentration of 103 and 105 for our experiments. The MCF-7 (wt p53) cells were treated for 12 hrs with increasing concentrations of 105 ranging from 1 to 100 μM and analysed for p53 protein expression using monoclonal antibody DO-1 (FIG. 3A). […] As shown at FIG. 3C the level of protein expression induced by 5 μM 105 was not substantially different from expression induced by 50 μM concentration was selected for further experiments. Second, the periods of time 6, 12 and 24 hrs were chosen, since the level of protein expression reached a steady state. We analysed the expression of p53 protein in MCF-7 (wt p53), BT549 (mut p53) and BT474 (mut p53) breast cancer cell lines, in HT29 (mut p53) colorectal cancer cell line and in ostaosarcoma cell line HOS (mut p53). […] No induction of p53 was observed following exposure of BT549 and HOS cell lines, expressing mutant p53, to 5 μM 105 for 6, 12 and 24 hrs. No correlation was observed between the sensitivity of cell lines to 105 and the presence of wild-type or mutant p53.

HSV-1 = test: Plaque number reduction assay, HSV-1 on HFFF; assay type: cell-based, Herpes simplex virus type 1 strain 17
HAd4 = HAd4 yield reduction assay (multiple step growth curve) in A549 cells; settings: culture medium; combination: until 72 hours after infection
[3] = MCF7 cells treated for 24 h, immunoblot (FIG. 2)

Q: `CCC(CO)Nc1nc(NCc2ccccc2N)c2ncn(C(C)C)c2n1` (stereo not drawn) [Compound 105, 2-({6-[(2-aminobenzyl)amino]-9-isopropyl-9H-purin-2-yl}amino)butan-1-ol] was tested. Which “phosphorylation of both serine 2 and serine 5 of RNA polymerase II CTD” value ([1]; 12 hours treatment, cell lines with incorporated SV40, all tested cell lines (FIG. 12A)) did it give?
A: inhibited

Q: And the “levels of serine 2 and serine 5 phosphorylation of RNA polymerase II CTD” value ([1]; COS-1, CV-1 and MCF-7 cells)?
A: substantially reduced

Q: What about the “phosphorylation of CTD of RNA polymerase II” value [1, 3] of the same compound?
A: reduced phosphorylation

Q: And the “tumor suppressor p53 level” value [2, 3]?
A: Induction

Q: And the “concentration shown to affect the level of p53 protein” value ([2]; MCF-7 (wt p53), 12 hrs, antibody DO-1)?
A: 2 to 5 µM

Q: And the “accumulation of wild-type p53” value ([2]; MCF-7, 5 μM, 6, 12 and 24 hrs)?
A: significant accumulation

Q: And the “time at which induction of p53 protein was apparent” value ([2]; MCF-7 cells)?
A: 4 h

Q: What about the “inhibition of virus replication (in words)” value (HSV-1) of the same compound?
A: inhibited replication

Q: What about the “appearance of extracellular virus” value (HAd4) of the same compound?
A: considerably delayed
